{"source": "patent US12622895B2", "about": "“Anti-neurodegenerative combinations and use for treatment of neurodegenerative diseases” (ALTO NEUROSCIENCE, INC., priority 2018, dated 2026)", "key": {"animals": {"tested_on": "animals", "settings": "cited from earlier work"}, "[1]": {"tested_on": "patients with secondary progressive multiple sclerosis", "settings": "high-dose, 140 patients, cited from earlier work"}, "brain cell systems": {"tested_on": "brain cell systems", "settings": "cited from earlier work"}, "[2]": {"tested_on": "rat corticostriatal slices", "settings": "0.3, 1, 3 and 10 μM; cited from earlier work"}, "MPTP-treated mice": {"tested_on": "MPTP-treated mice", "settings": "20 mg/kg; cited from earlier work"}, "[3]": {"tested_on": "A53T α-synuclein-induced neurodegeneration", "settings": "cited from earlier work"}, "patients with PD": {"tested_on": "patients with PD", "settings": "25 mg-50 mg, alone or with levodopa; cited from earlier work"}, "alpha-synuclein": {"molecular_target": "alpha-synuclein (Homo sapiens, UniProt P37840)", "settings": "cited from earlier work"}, "Engrailed mutant mice": {"tested_on": "Engrailed mutant mice", "settings": "cited from earlier work"}, "[4]": {"tested_on": "mice that received 6-hydroxydopamine", "settings": "injection, 30 mg/kg; cited from earlier work"}, "MPTP induced damage": {"tested_on": "MPTP induced damage", "settings": "toxin-induced model of PD; cited from earlier work"}, "rodent": {"tested_on": "rodent", "settings": "fluoxetine added to pramipexole; cited from earlier work"}, "rodents": {"tested_on": "rodents", "settings": "large doses, acute systemic administration; cited from earlier work"}, "Caenorhabditis elegans": {"tested_on": "Caenorhabditis elegans", "settings": "C. elegans; cited from earlier work"}, "6-OHDA induced damage": {"tested_on": "6-OHDA induced damage", "settings": "toxin-induced model of PD; cited from earlier work"}, "patients [5]": {"tested_on": "patients", "settings": "in vivo; cited from earlier work"}, "subjects": {"tested_on": "subjects", "settings": "in vivo"}, "[6]": {"tested_on": "α-synuclein in peripheral blood exosomes", "settings": "PD patients, approved therapeutic doses; cited from earlier work"}, "patients [7]": {"tested_on": "patients", "settings": "5 mg/day of pramipexole, cited from earlier work"}, "mouse PD model": {"tested_on": "mouse PD model", "settings": "cited from earlier work"}, "[8]": {"molecular_target": "human wild-type alpha-synuclein (Homo sapiens, UniProt P37840)", "settings": "by H2O2 plus cytochrome c; cited from earlier work"}, "PD patients": {"tested_on": "PD patients", "settings": "doses approved for the motor symptoms of PD; 535 PD patients; cited from earlier work"}, "Parkinsonian patient": {"tested_on": "Parkinsonian patient", "settings": "one patient, cited from earlier work"}, "[9]": {"tested_on": "human neuroblastoma SH-SY5Y cells", "settings": "cited from earlier work"}}, "note": "Read-outs that look alike come from different tables or passages of the source.", "data": [{"smiles": "CCC(C)(C)C(=O)O[C@H]1C[C@@H](C)C=C2C=C[C@H](C)[C@H](CC[C@@H]3C[C@@H](O)CC(=O)O3)[C@H]21", "note": "[simvastatin, (1S,3R,7S,8S,8aR)-8-{2-[(2R,4R)-4-hydroxy-6-oxotetrahydro-2H-pyran-2-yl]ethyl}-3,7-dimethyl-1,2,3,7,8,8a-hexahydronaphthalen-1-yl 2,2-dimethylbutanoate]", "values": [{"measurement": "consequences of dopaminergic neurotoxin MPTP", "setting": "animals", "result": "protect against the deleterious consequences of dopaminergic neurotoxin MPTP"}, {"measurement": "tolerability and safety", "setting": "[1]", "result": "well tolerated and safe"}, {"measurement": "annualised rate of whole-brain atrophy", "setting": "[1]; versus placebo", "result": "reduced the annualised rate of whole-brain atrophy compared with placebo"}, {"measurement": "dopaminergic neurodegeneration", "setting": "brain cell systems; 6-OHDA-lesioned cell model (Xu et al. 2013)", "result": "robust neuroprotection against dopaminergic neurodegeneration"}, {"measurement": "consequences of the dopaminergic neurotoxin 6-OHDA", "setting": "brain cell systems; brain cell systems", "result": "protect against the deleterious consequences of the dopaminergic neurotoxin 6-hydroxydopamine"}]}, {"smiles": "NS(=O)(=O)Cc1noc2ccccc12", "note": "[zonisamide, benzo[d]isoxazol-3-ylmethanesulfonamide]", "values": [{"measurement": "rotenone-induced toxicity (loss of corticostriatal field potential amplitude)", "setting": "[2]", "result": "significantly reduced the rotenone-induced toxicity"}, {"measurement": "loss of nigral TH-positive neurons", "setting": "MPTP-treated mice", "result": "reduced the loss of nigral TH-positive neurons"}, {"measurement": "striatal dopamine depletion", "setting": "MPTP-treated mice", "result": "attenuating the associated striatal dopamine depletion"}, {"measurement": "duration of the effect", "setting": "[3]; after transgene injection", "result": "lasted at least eight weeks"}, {"measurement": "survival of nigrostriatal dopamine neurons", "setting": "[3]; oral, 40 mg/kg/day", "result": "no impact"}, {"measurement": "pace of degeneration", "setting": "[3]; oral, 40 mg/kg/day, four weeks after injection of the viral vector, versus control group", "result": "significantly delayed the pace of degeneration"}, {"measurement": "motor symptoms", "setting": "patients with PD", "result": "improve motor symptoms"}, {"measurement": "oligomerization (and aggregation) of alpha-synuclein in vitro", "setting": "alpha-synuclein", "result": "inhibits the in vitro oligomerization and aggregation of alpha-synuclein"}, {"measurement": "survival of nigrostriatal dopaminergic neurons, striatal terminals and motor function", "setting": "Engrailed mutant mice; chronic administration, versus saline", "result": "improved the survival of nigrostriatal dopaminergic neurons as well as their striatal dopaminergic terminals and motor function"}, {"measurement": "brain-derived neurotrophic factor content in striatum and ventral midbrain", "setting": "Engrailed mutant mice; versus saline-treated controls", "result": "increased"}, {"measurement": "loss of nigral dopamine neurons", "setting": "[4]", "result": "prevented the loss of nigral dopamine neurons"}]}, {"smiles": "CNCCC(Oc1ccc(C(F)(F)F)cc1)c1ccccc1", "note": "(stereo not drawn) [fluoxetine, 1-methylamino-3-phenyl-3-[4-(trifluoromethyl)phenoxy]propane]", "values": [{"measurement": "MPTP induced damage", "setting": "MPTP induced damage", "result": "protect against"}, {"measurement": "activity of pramipexole in the forced swimming test", "setting": "rodent", "result": "enhance the activity of pramipexole"}, {"measurement": "extracellular concentrations of norepinephrine and dopamine", "setting": "rodents", "result": "significant increase"}, {"measurement": "amyloid-β oligomers", "setting": "Caenorhabditis elegans", "result": "reducing amyloid-β oligomers"}, {"measurement": "amyloid-β-induced paralysis", "setting": "Caenorhabditis elegans", "result": "significantly delay"}, {"measurement": "life span", "setting": "Caenorhabditis elegans", "result": "extend life span"}, {"measurement": "thermal stress resistance", "setting": "Caenorhabditis elegans", "result": "increase thermal stress resistance"}, {"measurement": "6-OHDA induced damage", "setting": "6-OHDA induced damage", "result": "protect against"}]}, {"smiles": "CCCN[C@H]1CCc2nc(N)sc2C1", "note": "[Pramipexole, (S)-6-propylamino-4,5,6,7-tetrahydro-1,3-benzothiazole-2-amine]", "values": [{"measurement": "side effects of the approved doses, often dose-limiting", "setting": "patients [5]", "result": "nausea, vomiting, somnolence, confusion, postural hypotension, and hallucinations as well as gastrointestinal disturbances"}, {"measurement": "first intolerable dose reached", "setting": "subjects; human", "result": "All subjects reached FID-1"}, {"measurement": "dose limiting toxicity", "setting": "subjects", "result": "gastro-intestinal adverse events"}, {"measurement": "magnitude of the effect on alpha-synuclein expression", "setting": "[6]", "result": "small"}, {"measurement": "nausea, patients", "setting": "patients [7]", "result": 76, "unit": "%"}, {"measurement": "vomiting, patients", "setting": "patients [7]", "result": 39, "unit": "%"}, {"measurement": "patients not able to complete the study", "setting": "patients [7]; presumably intolerable GI adverse events", "result": 36, "unit": "%"}, {"measurement": "oligomerization (and aggregation) of alpha-synuclein in vitro", "setting": "alpha-synuclein", "result": "diminishes synuclein oligomer formation"}, {"measurement": "toxic effects of rotenone on dopaminergic neurons", "setting": "mouse PD model; mouse PD model", "result": "inhibits the toxic effects of rotenone on dopaminergic neurons"}, {"measurement": "immunoreactivity for alpha-synuclein", "setting": "mouse PD model; rotenone mouse PD model", "result": "reducing immunoreactivity for alpha-synuclein"}, {"measurement": "in vitro oligomerization of human wild-type alpha-synuclein", "setting": "[8]", "result": "decreases"}, {"measurement": "neuroprotective (disease modifying) activity", "setting": "PD patients", "result": "failed to evidence neuroprotective (i.e., disease modifying) activity"}, {"measurement": "hallucinations", "setting": "Parkinsonian patient; extended-release formulation, pramipexole 4.5 mg/day with levodopa, entcapone, selegiline and zonisamide", "result": "induce hallucinations"}, {"measurement": "hallucinations", "setting": "Parkinsonian patient; immediate release formulation, same combination", "result": "not"}, {"measurement": "aggregation of alpha-synuclein", "setting": "[9]", "result": "inhibit the aggregation of alpha-synuclein"}]}]}
